Where two headings read alike, the source gives them in different places.
Legend:
[1] = target: T1, TrxR1 and other protein targets in HCT116 cells (Homo sapiens, UniProt Q16881); details: 90-min preincubation of GSH-depleted HCT116 (auranofin 10 μM or Iniparib 100 μM)
T1 sequence (Q16881 1-499 isoform Q16881-5): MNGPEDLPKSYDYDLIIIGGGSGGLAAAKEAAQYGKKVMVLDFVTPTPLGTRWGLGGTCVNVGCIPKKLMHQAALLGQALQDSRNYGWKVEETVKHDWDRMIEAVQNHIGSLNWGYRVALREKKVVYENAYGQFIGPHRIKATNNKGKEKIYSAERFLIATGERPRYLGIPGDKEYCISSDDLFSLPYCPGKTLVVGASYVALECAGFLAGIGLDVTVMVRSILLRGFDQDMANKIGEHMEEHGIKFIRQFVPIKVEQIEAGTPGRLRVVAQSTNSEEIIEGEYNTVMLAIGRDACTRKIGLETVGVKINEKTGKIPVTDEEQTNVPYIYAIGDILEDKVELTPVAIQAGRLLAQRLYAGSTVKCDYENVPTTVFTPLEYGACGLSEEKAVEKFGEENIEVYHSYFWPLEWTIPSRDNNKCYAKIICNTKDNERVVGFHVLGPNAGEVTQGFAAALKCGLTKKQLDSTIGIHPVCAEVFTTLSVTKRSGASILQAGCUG
Procedure: TrxR1 immunoprecipitates (FIG. 17A) and cells extracts (FIG. 17B) were analysed by SDS-PAGE under reducing conditions followed by streptavidin-HRP blot and TrxR1 blot.
Clarified octyl-glucoside lysates (12 mg proteins) were combined with anti-TrxR1 or anti-TrxR2 monoclonal antibody coupled to protein G plus agarose (Santa Cruz Biotechnology) and mixed overnight at 4° C. Beads were recovered by centrifugation for 2 min at 1,000×g and extensively washed in octyl-glucoside lysis buffer. Precipitated complexes were eluted by incubating the beads for 20 min at 60° C. in SDS sample buffer. The amount of immunoprecipitated TrxR1 and TrxR2 was systematically checked by blots anti-TrxR1 and anti-TrxR2, respectively.

[2] = test system: HCT116 cells; assay: Cytotoxicity assay (WST-1 cell viability); assay type: cell-based, human; details: for cytotoxicity: HCT116 without GSH depletion; for IC50: Homo sapiens
Procedure: Cell viability following drug treatments was assessed using WST-1 cell proliferation assay (Roche) Briefly, cells were plated into 96-well plates with 8,000 (HCT116) or 20,000 (MDA-MB-453) cells per well and allowed to attach overnight. Cells were then preincubated for 5 h in the presence or absence of 1 mM BSO. […] After 3 h of incubation at 37° C., the amount of formazan dye was quantified by measuring the optical density at 450 nm with a scanning multiwell spectrophotometer (PerkinElmer).
Cell viability following drug treatments was assessed using WST-1 cell proliferation assay (Roche). Briefly, cells were plated into 96-well plates with 8,000 (HCT116) or 20,000 (MDA-MB-453) cells per well and allowed to attach overnight. Cells were then preincubated for 5 h in the presence or absence of 1 mM BSO. […] After 3 h of incubation at 37° C., the amount of formazan dye was quantified by measuring the optical density at 450 nm with a scanning multiwell spectrophotometer (PerkinElmer).

[3] = test system: MDA-MB-231 cells; assay: Fluorescence microscopy, subcellular localization of iniparib-biotin targets; assay type: cell-based, human; details: MDA-MB-231, as early as 30 min following compound addition
Procedure: (§1) MDA-MB-231 cells were platted on polylysine D coated thin glass bottom microscope chambers (Ibidi). […] For subcellular localization experiments mitochondria were stained with 100 nM Mitotracker Red CMX (Molecular probes) added for 10 min. This stain was performed before fixation (Paraformaldehyde 3.7% in PBS pH 7.4). Biotin was developed, after Triton X100 (0.3% in PBS, 15 min) permeabilization and saturation (1% BSA+1% gelatin in PBS: saturation buffer), with Alexa-488 streptavidin (Molecular Probes) conjugate (1 μg/ml in saturation buffer). Nuclei were stained with Hoechst (Molecular Probes) and samples mounted in antifading solution (Ibidi).
(§2) Cells were imaged with a PLAN NeoFluar 40× (NA 1.3) or 100×, (NA 1.46) oil objectives on a LSM510 (Zeiss) confocal microscope. Laser lines, filters and dichroic mirrors were selected for maximal separation of the green (Ex./Em. 488/530 nm) and the red fluorescence (Ex./Em. 543/LP 585 nm). Nuclei were observed (Ex./Em. 405/460 nm). For co-localization stacks of images separated by 400 nm along z-axis were acquired. Post-capture processing was done using LSM510 software, stacks of confocal images were deconvoluted using the ImageJ software.

[4] = test system: HCT116 cells; assay: Fluorescence microscopy, subcellular localization of Iniparib-biotin targets; assay type: cell-based, human; details: HCT116, 30 min after adding Iniparib-biotin
Procedure: as §1, with “HCT116” for “MDA-MB-231”, “anti-fading” for “antifading”
as §2, with “and Photoshop (Adobe) was used to make linear adjustments to brightness and contrast.” for “stacks of confocal images were deconvoluted using the ImageJ software.”

Row | SMILES | TrxR1 labeling with Iniparib-biotin after preincubation [1] | cytotoxicity ([2]; after 24 h, concentrations up to 100 μM) | cytotoxicity ([2]; up to 100 μM of Iniparib) | IC50 ([2]; HCT-116, 24 h, read-out: IC50 (cytotoxicity), HCT116 cells not depleted of GSH, transitory or 24 h exposure) [µM] | IC50 ([2]; HCT-116, read-out: IC50 (cytotoxicity), HCT116, GSH depletion (Example 2)) [µM] | IC50 ([2]; HCT-116, read-out: IC50 (cytotoxicity), HCT116 after GSH depletion with BSO (Example 1)) [µM] | protein modification, subcellular localization [3] | subcellular localization of labeled proteins [4]
1 | NC(=O)c1ccc(I)c([N+](=O)[O-])c1 [Iniparib, 4-iodo-3-nitrobenzamide] | only a partial inhibition | marginal cytotoxicity | no cytotoxicity was detected | > 100 | 8.2 | 8.4 ± 0.5 |  | 
2 | O=C(CCCC[C@@H]1SC[C@@H]2NC(=O)N[C@@H]21)NCCNC(=O)c1ccc(I)c([N+](=O)[O-])c1 [Iniparib-biotin, 4-iodo-3-nitro-N-(2-(5-((3 aS,4S,6aR)-2-oxohexahydro-1H-thieno[3,4-d]imidazol-4-yl)pentanamido)ethyl)benzamide] |  |  |  |  |  |  | covalently modified cytosolic and mitochondrial proteins were detected | cellular proteins were labeled in the cytosol as well as in the nucleus and cytoplasmic structures

Source: patent publication US20200113852A1, “METHODS OF PATIENT SELECTION AND TREATING TRXR- OR PRDX-OVEREXPRESSED CANCERS” (TRIACT THERAPEUTICS, INC., priority 2017, published 2020)
